Measured values taken from PubChem BioAssay (NCI).
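Assay format: 96-well plates, 48-hour exposure. GI50 marks 50% less growth. TGI is the concentration that stops growth completely.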

Legend:
Assay in all cases: NCI tumour cell line growth inhibition, 48 h
HT29 colon = test system: HT29 colon
MOLT-4 leukemia = test system: MOLT-4 leukemia
NCI-H460 lung = test system: NCI-H460 lung
OVCAR-4 ovarian = test system: OVCAR-4 ovarian
OVCAR-8 ovarian = test system: OVCAR-8 ovarian
RXF 393 renal = test system: RXF 393 renal
SK-OV-3 ovarian = test system: SK-OV-3 ovarian
T-47D breast = test system: T-47D breast
TK-10 renal = test system: TK-10 renal
UACC-257 melanoma = test system: UACC-257 melanoma

Structure (SMILES)	TGI (HT29 colon) [µM]	TGI (MOLT-4 leukemia) [µM]	TGI (NCI-H460 lung) [µM]	TGI (OVCAR-4 ovarian) [µM]	TGI (OVCAR-8 ovarian) [µM]	TGI (RXF 393 renal) [µM]	TGI (SK-OV-3 ovarian) [µM]	TGI (T-47D breast) [µM]	TGI (TK-10 renal) [µM]	TGI (UACC-257 melanoma) [µM]	GI50 (HT29 colon) [µM]	GI50 (MOLT-4 leukemia) [µM]	GI50 (NCI-H460 lung) [µM]	GI50 (OVCAR-4 ovarian) [µM]	GI50 (OVCAR-8 ovarian) [µM]	GI50 (RXF 393 renal) [µM]	GI50 (SK-OV-3 ovarian) [µM]	GI50 (T-47D breast) [µM]	GI50 (TK-10 renal) [µM]	GI50 (UACC-257 melanoma) [µM]
CCc1nc(N)nc(N)c1-c1ccc(N2CCNCC2)cc1	> 100	> 91.8	> 100	> 100	> 100	> 100	> 100	> 100	> 100	> 86										
C=C1C(=O)OC2/C=C(/C)C(OC(C)=O)C/C=C(\C)C(OC(=O)C3(C)OC3C)C(O)C12 (stereo not given)	> 100	> 100	> 100	> 100	> 100	> 100	> 100	> 100	> 100	> 100										
NS(=O)(=O)OCCCCCCCOS(N)(=O)=O	1630	790	401	1110	707	660	1570	1880	1920	1310										
COc1cc2c3c(n(C)c(=O)c2cc1OC)-c1ccc(C#N)cc1C3=O	> 100	> 100	> 100	> 100	> 100	> 100	> 100	> 100	> 100	> 100	> 100	> 100	> 100	> 100	> 100	> 100	> 100	91.9	> 100	> 100
Nc1ncnc2c1ncn2C1OC(CO)C(O)C1N (stereo not given)	> 100	> 100	> 100	> 100	> 100	> 100	> 100	> 100	> 100	> 100										
O=C(CN1C(=O)S/C(=C\C(Cl)=C\c2ccccc2)C1=O)NC1C=CS(=O)(=O)C1 (stereo not given)	6.72	> 100	6.36	17.4	> 100	2.18	32.6	8.19	6.61	8.82	1.92	0.621	1.86	2.27	0.939	0.849	3.3	0.917	2.08	2.18
N=c1c2c(=N)n3c(nc2nc2n1-c1ccccc1Sc1ccccc1-2)sc1cc(Cl)ccc13	> 100	> 100	10.3	> 100	67.9	9.52	37	9.5	> 100	54.8	3.43	2.33	1.77	2.78	3.1	2.46	4.42	2.41	3.64	2.59
COc1cc(-c2nn(-c3cccc(NC(=O)c4ccc(Cl)c(C(F)(F)F)c4)c3)cc2-c2ccncc2)ccc1Cl	> 26.1	> 32.5	> 32.5	> 32.5	> 32.5	> 24.6	> 32.5	> 32.5	> 32.5	> 32.5	3.33	5.24	2.21	6.26	3.35	2.01	7.53	1.3	12.9	3.6
O=C1/C=C/[C@@H](O)[C@@H]2C[C@@H](O)C[C@H]2/C=C/CCC[C@H](C(F)(F)F)O1	0.38	0.625	> 100	> 100	9.03	38.7	> 100	0.52	0.78	1.01	0.0678	0.174	9.54	0.139	0.254	0.0864	16.4	0.184	0.0888	0.053
CCn1c(-c2nonc2N)nc2cncc(C(=O)N3CC[C@H](N)C3)c21	> 25	> 25	> 25	> 25	> 25	> 25	> 25	> 25	9.22	> 25	> 25	> 25	17.7	> 25	> 25	> 6.57	> 25	24.9	0.549	> 25
O=c1[nH]cnc2c1nnn2CCCCCCCCCCCCn1nnc2c(=O)[nH]cnc21	> 100	> 100	> 100	> 100	> 86.8	> 50.5	38.5	> 100	50.7	> 100										
CC(=O)[O][Hg][c]1c(C)c(C)cc(C)c1C	6.31	4.54	3.09	1.37	3.23	1.24	6.96	4.79	3.84	2.73	1.6	0.242	0.739	0.566	1.77	0.482	3.63	1.68	1.86	1.36
CN1CSC(=S)N(Cc2ccccc2)C1	11.6	> 100	36.8	27.8	> 100	24	> 100	23.4	9.41	30.4	3.36	11.2	15.3	14.2	25.2	11.7	> 100	4.78	3.39	13.7
O=C1c2ccccc2C(=O)c2c(OCCOCCO)cccc21	> 100	> 100	> 100	> 100	> 100	> 100	> 100	> 100	> 100	> 100										
CC1=C(C(=O)Nc2ccc(Cl)c(C(=O)OC(C)C)c2)SCCO1	50.8	84.4	99.6	> 97.6	> 100	> 97.7	> 81.1	> 100	> 100	> 89.8										
